Test results as given in BigSolDB 2.1.

N[C@@H](C(=O)N[C@@H]1C(=O)N2C(C(=O)O)=C(Cl)CS[C@H]12)c1ccccc1.O
solubility (mole fraction)
Conditions	278.15 K	283.15 K	288.15 K	293.15 K	298.15 K	303.15 K	308.15 K	313.15 K
in acetone	2.05e-05	2.67e-05	3.43e-05	4.35e-05	5.48e-05	6.84e-05	8.57e-05	0.000108
in ethanol	2.36e-05	3.05e-05	3.86e-05	4.76e-05	5.71e-05	6.72e-05	7.92e-05	9.55e-05
in methanol	8.68e-05	0.000101	0.000115	0.000129	0.000145	0.000163	0.000186	0.000214
in water	0.000387	0.000401	0.000417	0.000445	0.000476	0.000511	0.000551	0.000602
